Source: patent US6906068B1, “Substituted polycyclic aryl and heteroaryl 1,2,4 - triazinones useful as anticoagulants” (Pharmacia Corporation, priority 1999, dated 2005)

What was measured:
Type in all cases: biochemical
[1] = biological target: T1, trypsin, type IX from porcine pancreas (Sus scrofa, UniProt P00761); assay: Trypsin Assay; conditions: read-out: Trpysin II IC50
T1 construct: purchased Sigma, St. Louis Mo. type IX; host or cells: porcine pancreas
Procedure: 5 ug/ml trypsin, type IX from porcine pancreas and 0.375 mM N-α-Benzoyl-L-arginine-p-nitroanilide (L-BAPNA) are added to a 96-well assay plate containing either inhibitor or buffer (50 mM Tris-HCl, pH 8.0, 100 mM NaCl, 0.1% BSA). The reactions, in a final volume of 100 ul are measured immediately at 405 nm to determine background absorbance. The plate is incubated at room temperature for 60 min, at which time the rate of hydrolysis of the substrate is measured by monitoring the reaction at 405 nm for the release of p-nitroaniline. Percent inhibition of trypsin activity is calculated from OD405 nm value from the experimental and control sample.
(§1) Recombinant soluble TF, consisting of amino acids 1-219 of the mature protein sequence was expressed in E. coli and purified using a Mono Q Sepharose FPLC. Recombinant human VIIa was purchased from American Diagnostica, Greenwich Conn. and chromogenic substrate N-Methylsulfonyl-D-phe-gly-arg-p-nitroaniline was prepared by American Peptide Company, Inc., Sunnyvale, Calif. Factor Xa was obtained from Enzyme Research Laboratories, South Bend Ind., thrombin from Calbiochem, La Jolla, Calif., and trypsin and L-BAPNA from Sigma, St. Louis Mo. The chromogenic substrates S-2765 and S-2238 were purchased from Chromog nix, Sweden.

[2] = biological target: T2, TF-VIIa (recombinant soluble tissue factor and recombinant human factor VIIa) (Homo sapiens, UniProt P08709); assay: TF-VIIa Assay
T2 construct: conversion of coagulation factor VII to VIIa by Xa; purchased American Diagnostica, Greenwich Conn; host or cells: factor VIIa purchased; soluble TF made in house in E. coli
Procedure: In this assy 100 nM recombinant soluble tissue factor and 2 nM recombinant human factor VIIa are added to a 96-well assay plate containing 0.4 mM of the substrate, N-Methylsulfonyl-D-phe-gly-arg-p-nitroaniline and either inhibitor or buffer (5 mM CaCl2, 50 mM Tris-HCl, pH 8.0, 100 mM NaCl, 0.1% BSA). The reaction, in a final volume of 100 ul is measured immediately at 405 nm to determine background absorbance. The plate is incubated at room temperature for 60 min, at which time the rate of hydrolysis of the substrate is measured by monitoring the reaction at 405 nm for the release of p-nitroaniline. Percent inhibition of TF-VIIa activity is calculated from OD405 nm value from the experimental and control sample.
as §1

human thrombin = human thrombin (Homo sapiens, UniProt P00734); assay: Thrombin Assay; conditions: @ 30 uM
Procedure: 0.28 nM human thrombin and 0.06 mM H-D-Phenylalanyl-L-pipecolyl-L-arginine-p-nitroaniline dibydrochloride are added to a 96-well assay plate containing either inhibitor or buffer (50 mM Tris-HCl, pH 8.0, 100 mM NaCl, 0.1% BSA). The reaction, in a final volume of 100 ul is measured immediately at 405 nm to determine background absorbance. The plate is incubated at room temperature for 60 min, at which time the rate of hydrolysis of the substrate is measured by monitoring the reaction at 405 nm for the release of p-nitroaniline. Percent inhibition of thrombin activity is calculated from OD405 nm value from the experimental and control sample.

human factor Xa = biological target: T3, human factor Xa (Homo sapiens, UniProt P00742); assay: Xa Assay; conditions: @ 30 uM
T3 construct: purchased Enzyme Research Laboratories, South Bend Ind
Procedure: 0.3 nM human factor Xa and 0.15 mM N-α-Benzyloxycarbonyl-D-arginyl-L-glycyl-L-arginine-p-nitroaniline-dihydrochloride (S-2765) are added to a 96-well assay plate containing either inhibitor or buffer (50 mM Tris-HCl, pH 8.0, 100 mM NaCl, 0.1% BSA). The reaction, in a final volume of 100 ul is measured immediately at 405 nm to determine background absorbance. The plate is incubated at room temperature for 60 min, at which time the rate of hydrolysis of the substrate is measured by monitoring the ieaction at 405 nm for the release of p-nitroaniline. Percent inhibition of Xa activity is calculated from OD405 nm value from the experimental and control sample.
as §1

T3 sequence (P00742 235-488 limits assumed): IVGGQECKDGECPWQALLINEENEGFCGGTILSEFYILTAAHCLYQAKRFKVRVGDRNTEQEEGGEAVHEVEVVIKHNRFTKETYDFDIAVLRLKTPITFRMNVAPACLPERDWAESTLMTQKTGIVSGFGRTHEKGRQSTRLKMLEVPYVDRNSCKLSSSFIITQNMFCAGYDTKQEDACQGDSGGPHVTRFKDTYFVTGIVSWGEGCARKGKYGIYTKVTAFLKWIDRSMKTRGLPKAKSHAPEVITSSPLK
T3 sequence (P00742 41-179 partner limits assumed): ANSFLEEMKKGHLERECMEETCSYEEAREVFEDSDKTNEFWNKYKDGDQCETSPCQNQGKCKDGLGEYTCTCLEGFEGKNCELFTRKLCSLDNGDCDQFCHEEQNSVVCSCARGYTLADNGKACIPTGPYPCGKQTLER
T1 sequence (P00761 9-231): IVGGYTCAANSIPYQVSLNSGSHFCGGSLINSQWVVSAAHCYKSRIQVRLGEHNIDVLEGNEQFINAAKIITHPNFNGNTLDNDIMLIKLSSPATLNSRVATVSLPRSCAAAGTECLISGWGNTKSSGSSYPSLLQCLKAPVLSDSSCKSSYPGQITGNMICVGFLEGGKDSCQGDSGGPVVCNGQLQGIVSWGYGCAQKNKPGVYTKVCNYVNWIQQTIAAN
T2 sequence (P08709 213-466 limits assumed): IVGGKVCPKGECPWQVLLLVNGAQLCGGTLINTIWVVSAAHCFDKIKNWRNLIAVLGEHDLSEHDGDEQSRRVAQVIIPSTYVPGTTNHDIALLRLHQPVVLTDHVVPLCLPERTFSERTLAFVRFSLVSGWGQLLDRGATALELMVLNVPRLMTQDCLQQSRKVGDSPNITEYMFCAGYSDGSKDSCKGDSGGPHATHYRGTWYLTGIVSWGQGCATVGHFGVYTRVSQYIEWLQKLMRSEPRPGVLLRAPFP
T2 sequence (P08709 61-212 partner limits assumed): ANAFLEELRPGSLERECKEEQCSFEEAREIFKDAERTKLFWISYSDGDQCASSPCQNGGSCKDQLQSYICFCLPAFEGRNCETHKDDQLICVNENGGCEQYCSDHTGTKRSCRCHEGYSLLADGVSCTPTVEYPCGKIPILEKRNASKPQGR
T2 sequence (P13726 33-251 partner limits assumed): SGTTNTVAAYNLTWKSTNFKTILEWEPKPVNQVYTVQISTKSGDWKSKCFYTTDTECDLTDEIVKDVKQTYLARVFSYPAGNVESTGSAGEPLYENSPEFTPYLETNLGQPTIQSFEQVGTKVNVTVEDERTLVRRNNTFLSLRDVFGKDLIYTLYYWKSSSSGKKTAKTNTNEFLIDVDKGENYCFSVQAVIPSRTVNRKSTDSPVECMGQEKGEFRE

SMILES	IC50 [1] [µM]	IC50 [2] [µM]	Thrombin II percent inhibition (human thrombin)	Factor Xa percent inhibition (human factor Xa) [% @ 30 uM]
N=C(N)c1cccc(CNC(=O)Cn2c(-c3ccccc3)ncc(NS(=O)(=O)Cc3ccccc3)c2=O)c1 [Example 2]	> 30	> 30		
CC(C)Nc1cnc(-c2cccc(N)c2)n(CC(=O)NCc2ccc(C(=N)N)cc2)c1=O [Example 6]			43% @ 30 um	33
CC(C)Nc1cnc(-c2cccnc2)n(CC(=O)NCc2ccc(C(=N)N)cc2)c1=O [Example 7]				33
N=C(N)c1ccc(CNC(=O)Cn2c(-c3cccc(N)c3)ncc(NC3CCC3)c2=O)cc1 [Example 8]			42% @ 30 uM	15
